Converted amounts (≈) assume the structure as drawn.
Assays:
A549 = assay: cells; settings: Homo sapiens
Description: Antiproliferative activity against human A549 cells by MTT assay

MCF7 = assay: cells; settings: Homo sapiens
Description: Antiproliferative activity against human MCF7 cells by MTT assay

DU-145 = assay: Antiproliferative activity against human DU-145 cells by MTT assay
HCT-116 [1] = assay: Antiproliferative activity against human HCT-116 cells by MTT assay
A2780 = assay: Antiproliferative activity against human A2780 cells by MTT assay
[2] = Solubility of compound; type: physicochemical
MDA-MB-231 = assay: cells; settings: Homo sapiens
Description: Antiproliferative activity against human MDA-MB-231 cells by MTT assay

HCT-116 [3] = assay: Induction of apoptosis in human HCT-116 cells assessed as necrotic cells at 1 uM by Annexin V-FITC/PI staining based assay (reference value: 1.05%); type: functional
HCT-116 [4] = assay: Induction of apoptosis in human HCT-116 cells assessed as necrotic cells at 0.5 uM by Annexin V-FITC/PI staining based assay (reference value: 1.05%); type: functional
HCT-116 [5] = assay: Induction of apoptosis in human HCT-116 cells assessed as viable cells at 0.5 uM by Annexin V-FITC/PI staining based assay (reference value: 96.76%); type: functional; settings: read-out: Activity
HCT-116 [6] = assay: Induction of apoptosis in human HCT-116 cells assessed as necrotic cells at 2 uM by Annexin V-FITC/PI staining based assay (reference value: 1.05%); type: functional
HCT-116 [7] = assay: Induction of apoptosis in human HCT-116 cells assessed as late apoptotic cells at 1 uM by Annexin V-FITC/PI staining based assay (reference value: 0.37%); type: functional
HCT-116 [8] = assay: Induction of apoptosis in human HCT-116 cells assessed as viable cells at 2 uM by Annexin V-FITC/PI staining based assay (reference value: 96.76%); type: functional; settings: read-out: Activity
HCT-116 [9] = assay: Induction of apoptosis in human HCT-116 cells assessed as late apoptotic cells at 0.5 uM by Annexin V-FITC/PI staining based assay (reference value: 0.37%); type: functional
HCT-116 [10] = assay: Induction of apoptosis in human HCT-116 cells assessed as early apoptotic cells at 1 uM by Annexin V-FITC/PI staining based assay (reference value: 1.82%); type: functional
HCT-116 [11] = assay: Induction of apoptosis in human HCT-116 cells assessed as viable cells at 1 uM by Annexin V-FITC/PI staining based assay (reference value: 96.76%); type: functional; settings: read-out: Activity
HCT-116 [12] = assay: Induction of apoptosis in human HCT-116 cells assessed as late apoptotic cells at 2 uM by Annexin V-FITC/PI staining based assay (reference value: 0.37%); type: functional
HCT-116 [13] = assay: Induction of cell cycle arrest in human HCT-116 cells assessed as increase in S-phase cells at 0.5 uM; type: functional
HCT-116 [14] = assay: Induction of apoptosis in human HCT-116 cells assessed as early apoptotic cells at 2 uM by Annexin V-FITC/PI staining based assay (reference value: 1.82%); type: functional
HCT-116 [15] = assay: Induction of apoptosis in human HCT-116 cells assessed as early apoptotic cells at 0.5 uM by Annexin V-FITC/PI staining based assay (reference value: 1.82%); type: functional
HCT-116 [16] = assay: Induction of apoptosis in human HCT-116 cells assessed as necrotic cells at 0.25 uM by Annexin V-FITC/PI staining based assay (reference value: 1.05%); type: functional
HCT-116 [17] = assay: Induction of cell cycle arrest in human HCT-116 cells assessed as increase in S-phase cells; type: functional, cell-based
HCT-116 [18] = assay: Induction of apoptosis in human HCT-116 cells assessed as late apoptotic cells at 0.25 uM by Annexin V-FITC/PI staining based assay (reference value: 0.37%); type: functional
HCT-116 [19] = assay: Induction of apoptosis in human HCT-116 cells assessed as early apoptotic cells at 0.125 uM by Annexin V-FITC/PI staining based assay (reference value: 1.82%); type: functional
HCT-116 [20] = assay: Antitumor activity against human HCT-116 cells xenografted in nude mouse assessed as tumor growth inhibition at 60 mg/kg, ip measured every 3 days; type: functional; parameters: scale not given: the % may be the effect or the level left
HCT-116 [21] = assay: Induction of apoptosis in human HCT-116 cells assessed as necrotic cells at 0.125 uM by Annexin V-FITC/PI staining based assay (reference value: 1.05%); type: functional
HCT-116 [22] = assay: Antiproliferative activity against human HCT-116 cells assessed as reduction in EdU positive cells at 0.25 uM; type: functional, cell-based
HCT-116 [23] = assay: Induction of apoptosis in human HCT-116 cells assessed as early apoptotic cells at 0.25 uM by Annexin V-FITC/PI staining based assay (reference value: 1.82%); type: functional
HCT-116 [24] = assay: Upregulation of H3K4me1 expression in human HCT-116 cells at 0.125 to 0.5 uM; type: functional, cell-based; settings: dose 0.125-0.5 µM
HCT-116 [25] = assay: Induction of apoptosis in human HCT-116 cells assessed as viable cells at 0.25 uM by Annexin V-FITC/PI staining based assay (reference value: 96.76%); type: functional; settings: read-out: Activity
HCT-116 [26] = assay: Induction of apoptosis in human HCT-116 cells assessed as late apoptotic cells at 0.125 uM by Annexin V-FITC/PI staining based assay (reference value: 0.37%); type: functional
[27] = Toxicity in nude mouse xenografted with human HCT-116 cells assessed as change in body weight at 60 mg/kg, ip; type: organism-based; settings: in vivo
HCT-116 [28] = assay: Induction of apoptosis in human HCT-116 cells assessed as viable cells at 0.125 uM by Annexin V-FITC/PI staining based assay (reference value: 96.76%); type: functional; settings: read-out: Activity
HCT-116 [29] = assay: Upregulation of H3K4me2 expression in human HCT-116 cells at 0.125 to 0.5 uM; type: functional, cell-based; settings: dose 0.125-0.5 µM

Row | Structure (SMILES) | IC50 (A549) [nM] | IC50 (MCF7) [nM] | IC50 (DU-145) [nM] | IC50 (HCT-116 [1]) [nM] | IC50 (A2780) [nM] | solubility [2] [µg/mL] | IC50 (MDA-MB-231) [nM] | other results
1 | O=C(N/N=C1\CCc2c(O)ccc(O)c21)c1cccc(S(=O)(=O)N2CCOCC2)c1 | 1400 | 600 | 7600 | 900 | 1600 | 46.9 (≈ 109 µM) | 3200 | 
2 | O=C(N/N=C1\CCc2cccc(O)c21)c1cccc(S(=O)(=O)N2CCOCC2)c1 | 900 |  | 1900 | 400 | 900 | 27.9 (≈ 67.2 µM) | 2900 | 
3 | C/C(=N\NC(=O)c1cccc(S(=O)(=O)N2CCN(C)CC2)c1)c1cc(Cl)ccc1O [SECLIDEMSTAT] | 2700 | 400 | 10500 | 600 | 2400 | 35.7 (≈ 79.2 µM) | 1100 | Activity (HCT-116 [3]): 1.32%; Activity (HCT-116 [4]): 2.48%; viability at 0.5 µM (HCT-116 [5]): 92.1%; Activity (HCT-116 [6]): 1.87%; Activity (HCT-116 [7]): 0.64%; viability at 2 µM (HCT-116 [8]): 91.7%; Activity (HCT-116 [9]): 2.16%; Activity (HCT-116 [10]): 4.56%; viability at 1 µM (HCT-116 [11]): 93.5%; Activity (HCT-116 [12]): 0.97%; Activity (HCT-116 [13]): 63%; Activity (HCT-116 [14]): 5.44%; Activity (HCT-116 [15]): 3.22%
4 | O=C(N/N=C1\CCc2c(Cl)ccc(O)c21)c1cccc(S(=O)(=O)N2CCOCC2)c1 | 1000 | 500 | 2500 | 500 |  | 29 (≈ 64.5 µM) | 2800 | 

The next compounds have a lower IC50 (A549) than those just listed; values first:

Row | IC50 (A549) [nM] | IC50 (MCF7) [nM] | IC50 (DU-145) [nM] | IC50 (HCT-116 [1]) [nM] | IC50 (A2780) [nM] | solubility [2] [µg/mL] | IC50 (MDA-MB-231) [nM] | Structure (SMILES) | other results
5 | 500 | 600 | 9200 | 500 | 500 | 23.9 (≈ 50 µM) | 900 | CC1COCC(C)N1S(=O)(=O)c1cccc(C(=O)N/N=C2\CCc3c(Cl)ccc(O)c32)c1 (centres undefined) | 
6 | 300 | 300 | 11800 | 700 | 700 | 30.2 (≈ 68.1 µM) | 1000 | CC1COCC(C)N1S(=O)(=O)c1cccc(C(=O)N/N=C2\CCc3cccc(O)c32)c1 (centres undefined) | 
7 | 300 | 100 | 2300 | 100 | 900 | 77.2 (≈ 168 µM) | 800 | CC1COCC(C)N1S(=O)(=O)c1cccc(C(=O)N/N=C2\CCc3c(O)ccc(O)c32)c1 (centres undefined) | Activity (HCT-116 [4]): 2%; viability at 0.5 µM (HCT-116 [5]): 70.2%; Activity (HCT-116 [16]): 1.28%; Activity (HCT-116 [17]): Dose-dependent-effect; Activity (HCT-116 [9]): 2.15%; Activity (HCT-116 [18]): 1.71%; Activity (HCT-116 [19]): 10.47%; Activity (HCT-116 [20]): 75%; Activity (HCT-116 [13]): 71%; Activity (HCT-116 [21]): 0.69%; Activity (HCT-116 [22]): Active; At High Concentration Showed More Potent Activity Than Sp-2577; Activity (HCT-116 [23]): 17.28%; Activity (HCT-116 [24]): Active; Slight Increase Observed; viability at 0.25 µM (HCT-116 [25]): 79.7%; Activity (HCT-116 [26]): 2.73%; Activity [27]: Non-toxic; viability at 0.125 µM (HCT-116 [28]): 86.1%; Activity (HCT-116 [29]): Active; Slight Increase Observed; Activity (HCT-116 [15]): 25.6%
